The target in this assay is human α2δ-1 subunit of Cav2.2 calcium channel (Homo sapiens (Human), UniProt P54289). Description: Binding assay to human α2δ-1 subunit of Cav2.2 calcium channel ([3H]-Gabapentin). The settings on record: read-out: Ki (nM) α2δ-1. Put shortly:
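[3H]-gabapentin binding, 60 min at 27° C; nonspecific binding defined with 10 μM pregabalin. Terminated by filtration on PEI-presoaked GF/C filters, ice-cold 50 mM Tris-HCl pH 7.4 washes, then scintillation counting.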

Setting [1] is: binding to α2δ-1, [3H]-Gabapentin.

Where two headings read alike, the source gives them in different places.

Chain of human α2δ-1 subunit of Cav2.2 calcium channel (P54289 25-1103): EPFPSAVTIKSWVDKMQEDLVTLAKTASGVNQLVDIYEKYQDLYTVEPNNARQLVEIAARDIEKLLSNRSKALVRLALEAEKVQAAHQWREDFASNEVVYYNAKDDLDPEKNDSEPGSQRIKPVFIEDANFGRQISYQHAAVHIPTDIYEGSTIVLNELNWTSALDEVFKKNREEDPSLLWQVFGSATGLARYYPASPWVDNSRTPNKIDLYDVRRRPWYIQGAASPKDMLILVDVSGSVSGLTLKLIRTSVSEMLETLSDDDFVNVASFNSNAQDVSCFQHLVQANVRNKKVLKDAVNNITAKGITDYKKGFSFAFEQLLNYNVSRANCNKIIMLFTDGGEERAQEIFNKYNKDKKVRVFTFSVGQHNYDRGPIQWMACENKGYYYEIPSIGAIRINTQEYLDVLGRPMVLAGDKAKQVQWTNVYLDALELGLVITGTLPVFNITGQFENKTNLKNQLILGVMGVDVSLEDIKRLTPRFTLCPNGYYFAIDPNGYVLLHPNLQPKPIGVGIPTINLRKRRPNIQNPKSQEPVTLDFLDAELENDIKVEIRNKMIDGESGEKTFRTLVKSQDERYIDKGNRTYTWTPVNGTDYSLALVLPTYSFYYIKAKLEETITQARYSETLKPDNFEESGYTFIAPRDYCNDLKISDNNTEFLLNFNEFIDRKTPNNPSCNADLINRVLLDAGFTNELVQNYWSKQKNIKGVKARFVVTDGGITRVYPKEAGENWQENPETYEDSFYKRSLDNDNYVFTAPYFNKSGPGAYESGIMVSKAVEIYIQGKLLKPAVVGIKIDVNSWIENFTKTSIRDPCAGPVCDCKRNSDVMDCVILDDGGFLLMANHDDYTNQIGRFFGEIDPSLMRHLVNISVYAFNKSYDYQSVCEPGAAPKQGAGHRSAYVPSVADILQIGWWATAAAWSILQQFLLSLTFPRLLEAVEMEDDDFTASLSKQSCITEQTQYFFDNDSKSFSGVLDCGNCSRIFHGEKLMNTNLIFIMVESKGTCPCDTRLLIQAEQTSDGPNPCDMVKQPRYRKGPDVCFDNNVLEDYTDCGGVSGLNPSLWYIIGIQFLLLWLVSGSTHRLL

`COc1ccc(N2CCN(C)c3nc(SC)ncc3C2=O)cc1` [Example 37, 6-(4-methoxyphenyl)-9-methyl-2-(methylthio)-6,7,8,9-tetrahydro-5H-pyrimido[4,5-e][1,4]diazepin-5-one]: under setting [1], the Ki – broadly, the dissociation constant of the complex between target and ligand, obtained from inhibition or displacement – was over 3000 nM. With `CCNc1ncc2c(n1)N(C)CCN(c1cccc(O[C@H](CCN(C)C(=O)OC(C)(C)C)c3cccs3)c1)C2=O` [Example 81, tert-butyl (R)-(3-(3-(2-(ethylamino)-9-methyl-5-oxo-5,7,8,9-tetrahydro-6H-pyrimido[4,5-e][1,4]diazepin-6-yl)phenoxy)-3-(thiophen-2-yl)propyl)(methyl) carbamate], under setting [1], the Ki is over 3000 nM. Consider `CCN1CCN(c2cccc(-c3nnc(C)o3)c2)C(=O)c2cnc(SC)nc21` [Example 30, 9-ethyl-6-(3-(5-methyl-1,3,4-oxadiazol-2-yl)phenyl)-2-(methylthio)-6,7,8,9-tetrahydro-5H-pyrimido[4,5-e][1,4]diazepin-5-one], for which, under setting [1], the Ki was over 3000 nM. Regarding `CCNc1ncc2c(n1)N(C)CCN(c1cccc(OCCCN(C)C(=O)OC(C)(C)C)c1)C2=O` [Example 88, tert-butyl (3-(3-(2-(ethylamino)-9-methyl-5-oxo-5,7,8,9-tetrahydro-6H-pyrimido[4,5-e][1,4]diazepin-6-yl)phenoxy)propyl) (methyl)carbamate], the Ki under setting [1] is over 3000 nM. In the case of `CCNc1ncc2c(n1)N(C)CCN(c1cccc(CCN(C)CCc3ccccc3)c1)C2=O` [Example 270, 2-(ethylamino)-9-methyl-6-(3-(2-(methyl(phenethyl)amino)ethyl)phenyl)-6,7,8,9-tetrahydro-5H-pyrimido[4,5-e][1,4]diazepin-5-one], the Ki under setting [1] fell in the range of 100 to 500 nM.

As to `COCCNc1ncc2c(n1)N(C)CCN(c1cccc(-c3nnc(C)o3)c1)C2=O` [Example 99, 2-((2-methoxyethyl)amino)-9-methyl-6-(3-(5-methyl-1,3,4-oxadiazol-2-yl)phenyl)-6,7,8,9-tetrahydro-5H-pyrimido[4,5-e][1,4]diazepin-5-one], the Ki under setting [1] is over 3000 nM. For the molecule `CCNc1ncc2c(n1)N(C)CCN(c1cccc(OCCN3CCCCC3)c1)C2=O` [Example 439, 2-(ethylamino)-9-methyl-6-(3-(2-(piperidin-1-yl)ethoxy)phenyl)-6,7,8,9-tetrahydro-5H-pyrimido[4,5-e][1,4]diazepin-5-one], under setting [1], the Ki lay within 500 to 3000 nM. Still for that read-out and setting: in the case of `CCNc1ncc2c(n1)N(C)CCN(c1cccc(Cn3cc(CN(C)Cc4ccccc4)nn3)c1)C2=O` [Example 250, 6-(3-((4-((benzyl (methyl)amino)methyl)-1H-1,2,3-triazol-1-yl)methyl)phenyl)-2-(ethylamino)-9-methyl-6,7,8,9-tetrahydro-5H-pyrimido[4,5-e][1,4]diazepin-5-one] it was 500 to 3000 nM. Regarding `CNCCC(OCc1cccc(N2CCN(C)c3nc(OC)ncc3C2=O)c1)c1cccs1` (centres unmarked) [Example 221, 2-methoxy-9-methyl-6-(3-((3-(methylamino)-1-(thiophen-2-yl)propoxy)methyl)phenyl)-6,7,8,9-tetrahydro-5H-pyrimido[4,5-e][1,4]diazepin-5-one], the Ki (Table 2, dual compounds, [3H]-Gabapentin binding) lay within 100 to 500 nM and the Ki under setting [1] lay in the range of 500 to 3000 nM.

On to `CCNc1ncc2c(n1)N(C)CCN(c1ccc(O)cc1)C2=O` [Example 178, 2-(ethylamino)-6-(4-hydroxyphenyl)-9-methyl-6,7,8,9-tetrahydro-5H-pyrimido[4,5-e][1,4]diazepin-5-one], for which the inhibition constant (Ki) under setting [1] is over 3000 nM. As for `CCNc1ncc2c(n1)N(C)CCN(c1cccc(-c3nnc(CN4CCC(c5ccccc5)(N(C)C)CC4)o3)c1)C2=O` [Example 441, 6-(3-(5-((4-(dimethylamino)-4-phenylpiperidin-1-yl)methyl)-1,3,4-oxadiazol-2-yl)phenyl)-2-(ethylamino)-9-methyl-6,7,8,9-tetrahydro-5H-pyrimido[4,5-e][1,4]diazepin-5-one], under setting [1], the Ki lay in the range of 100 to 500 nM. Regarding `CSc1ncc2c(n1)N(C)CCN(c1cccc(OC(CCN(C)C(=O)OC(C)(C)C)c3ccccn3)c1)C2=O` (centres unmarked) [Example 52, tert-butyl methyl(3-(3-(9-methyl-2-(methylthio)-5-oxo-5,7,8,9-tetrahydro-6H-pyrimido[4,5-e][1,4]diazepin-6-yl)phenoxy)-3-(pyridin-2-yl)propyl) carbamate], under setting [1], the Ki was over 3000 nM. In the case of `CNCC(OCc1ccccc1N1CCN(C)c2nc(SC)ncc2C1=O)c1ccccc1` (centres unmarked) [Example 320, 9-methyl-6-(2-((2-(methylamino)-1-phenylethoxy)methyl)phenyl)-2-(methylthio)-6,7,8,9-tetrahydro-5H-pyrimido[4,5-e][1,4]diazepin-5-one], the Ki under setting [1] is over 3000 nM.

For the molecule `Cc1ncc2c(n1)N(C)CCN(c1cccc(OC(CCN(C)C(=O)OCC[Si](C)(C)C)c3cccs3)c1)C2=O` (centres unmarked) [Example 144, 2-(trimethylsilyl)ethyl (3-(3-(2,9-dimethyl-5-oxo-5,7,8,9-tetrahydro-6H-pyrimido[4,5-e][1,4]diazepin-6-yl)phenoxy)-3-(thiophen-2-yl)propyl)(methyl) carbamate], under setting [1], the Ki was over 3000 nM. For `CCNc1ncc2c(n1)N(C)CCN(Cc1cccc(OC(CN(C)C(=O)OC(C)(C)C)c3ccccc3)c1)C2=O` (centres unmarked) [Example 135, tert-butyl (2-(3-((2-(ethylamino)-9-methyl-5-oxo-5,7,8,9-tetrahydro-6H-pyrimido[4,5-e][1,4]diazepin-6-yl)methyl)phenoxy)-2-phenylethyl)(methyl) carbamate], the Ki under setting [1] was over 3000 nM. For `Cc1nnc(-c2cccc(N3CCN(C)c4nc(NCCc5ccccc5)ncc4C3=O)c2)o1` [Example 105, 9-methyl-6-(3-(5-methyl-1,3,4-oxadiazol-2-yl)phenyl)-2-(phenethylamino)-6,7,8,9-tetrahydro-5H-pyrimido[4,5-e][1,4]diazepin-5-one], the Ki under setting [1] is over 3000 nM. Same read-out and setting: in the case of `CCNc1ncc2c(n1)N(C)CCN(c1cccc(Cn3cc(CNC)nn3)c1)C2=O` [Example 184, 2-(ethylamino)-9-methyl-6-(3-((4-((methylamino)methyl)-1H-1,2,3-triazol-1-yl)methyl)phenyl)-6,7,8,9-tetrahydro-5H-pyrimido[4,5-e][1,4]diazepin-5-one] it was 500 to 3000 nM.

In the case of `CNCC[C@H](OCc1cccc(N2CCN(C)c3nc(N)ncc3C2=O)c1)c1ccccc1` [Example 332, (S)-2-amino-9-methyl-6-(3-((3-(methylamino)-1-phenylpropoxy)methyl)phenyl)-6,7,8,9-tetrahydro-5H-pyrimido[4,5-e][1,4]diazepin-5-one], the Ki under setting [1] was over 3000 nM. `CSc1ncc2c(n1)N(C)CCN(c1cccc(C#N)c1)C2=O` [Example 33, 3-(9-methyl-2-(methylthio)-5-oxo-5,7,8,9-tetrahydro-6H-pyrimido[4,5-e][1,4]diazepin-6-yl)benzonitrile]: the Ki under setting [1] was over 3000 nM. The same measure, in the same setting: in the case of `CSc1ncc2c(n1)N(C)CCN(c1cccc(CCN(C)C(=O)OC(C)(C)C)c1)C2=O` [Example 24, tert-butyl methyl(3-(9-methyl-2-(methylthio)-5-oxo-5,7,8,9-tetrahydro-6H-pyrimido[4,5-e][1,4]diazepin-6-yl)phenethyl) carbamate] it was over 3000 nM; in that of `CCNc1ncc2c(n1)N(C)CCN(c1cccc(C3CCN(C(=O)OC(C)(C)C)CC3)c1)C2=O` [Example 234, tert-Butyl 4-(3-(2-(ethylamino)-9-methyl-5-oxo-5,7,8,9-tetrahydro-6H-pyrimido[4,5-e][1,4]diazepin-6-yl)phenyl)piperidine-1-carboxylate], over 3000 nM; in that of `CCNc1ncc2c(n1)N(C)CCN(c1cccc(C#N)c1)C2=O` [Example 110, 3-(2-(ethylamino)-9-methyl-5-oxo-5,7,8,9-tetrahydro-6H-pyrimido[4,5-e][1,4]diazepin-6-yl)benzonitrile], over 3000 nM.

As to `CSc1ncc2c(n1)N(C)CCN(c1cccc(-n3cc(CNC(=O)OC(C)(C)C)nn3)c1)C2=O` [Example 40, tert-butyl ((1-(3-(9-methyl-2-(methylthio)-5-oxo-5,7,8,9-tetrahydro-6H-pyrimido[4,5-e][1,4]diazepin-6-yl)phenyl)-1H-1,2,3-triazol-4-yl)methyl) carbamate], the Ki under setting [1] was over 3000 nM.

For `CCNc1ncc2c(n1)N(C)CCN(c1cccc(OC(CCN(C)C(=O)OC(C)(C)C)c3cccnc3)c1)C2=O` (centres unmarked) [Example 129, tert-butyl (3-(3-(2-(ethylamino)-9-methyl-5-oxo-5,7,8,9-tetrahydro-6H-pyrimido[4,5-e][1,4]diazepin-6-yl)phenoxy)-3-(pyridin-3-yl)propyl)(methyl) carbamate], under setting [1], the Ki was over 3000 nM. Turning to `CSc1ncc2c(n1)N(C)CCN(c1cccc(OC(C)CN(C)C(=O)OC(C)(C)C)c1)C2=O` (centres unmarked) [Example 6, tert-butyl methyl(2-(3-(9-methyl-2-(methylthio)-5-oxo-5,7,8,9-tetrahydro-6H-pyrimido[4,5-e][1,4]diazepin-6-yl)phenoxy)propyl) carbamate], the Ki under setting [1] was over 3000 nM. Regarding `Cc1cc2c(cn1)C(=O)N(c1cccc(COC(CCN(C)C(=O)OC(C)(C)C)c3ccccc3)c1)CCN2C` (centres unmarked) [Example 303, tert-butyl (3-((3-(1,8-dimethyl-5-oxo-1,2,3,5-tetrahydro-4H-pyrido[4,3-e][1,4]diazepin-4-yl)benzyl)oxy)-3-phenylpropyl)(methyl) carbamate], the Ki under setting [1] is over 3000 nM. Regarding `CSc1ncc2c(n1)N(C)CCN(c1cccc(OC(CN(C)C(=O)OC(C)(C)C)c3ccccc3)c1)C2=O` (centres unmarked) [Example 4, tert-butyl methyl(2-(3-(9-methyl-2-(methylthio)-5-oxo-5,7,8,9-tetrahydro-6H-pyrimido[4,5-e][1,4]diazepin-6-yl)phenoxy)-2-phenylethyl) carbamate], the Ki under setting [1] was over 3000 nM. Take `CSc1ncc2c(n1)N(C)CCN(c1cccc(-n3cnc(CN(C)C(=O)OC(C)(C)C)c3)c1)C2=O` [Example 46, tert-butyl methyl((1-(3-(9-methyl-2-(methylthio)-5-oxo-5,7,8,9-tetrahydro-6H-pyrimido[4,5-e][1,4]diazepin-6-yl)phenyl)-1H-imidazol-4-yl)methyl) carbamate]: under setting [1], the Ki is over 3000 nM.

(Values after US10590140B2, “Tetrahydropyrimidodiazepine and dihydropyridodiazepine compounds for treating pain and pain related conditions” (ESTEVE PHARMACEUTICALS, S.A., priority 2016, dated 2020).)
